Data taken from article PMC9928118, “Funneling modulatory peptide design with generative models: Discovery and characterization of disruptors of calcineurin protein-protein interactions” (PLOS Computational Biology, 2023).
Blank lines part the entries; values can stand above or below the sequence they belong to.

Tested on: GST-tagged Cn
Assay: PEPperPRINT peptide microarray binding assay with GST-tagged Cn
Text: We then estimated in-silico the binding strength of the various peptides to Cn by template-based docking followed by flexible backbone refinement using Modeller and PepCrawler (Figs 4 and S4). In parallel, we performed a medium-throughput qualitative binding assay using a PEPperPRINT peptide microarray to evaluate the direct binding of Cn to selected peptides (Figs 4 and S5, S3 Data).
Fig 4 Medium-throughput filtering by structural modeling and microarray screening. (a) Depiction of the structural modeling protocol: after alignment to the known PxIxIT binding site, an efficient flexible backbone structure refinement algorithm is applied to estimate the docking energy. […] (c) Coefficients of the equivalent single-site model fitted by sparse linear regression, shown in weight logo representation. […] Colors indicate physical property (black = hydrophobic, red = negatively charged, etc.). (d) Per-gene distribution of docking scores across natural fragments (lower is better). […] (e) Overview of the microarray screening. Peptides are printed on the chip (two circles per peptide). After pouring of Cn and subsequent washing, fluorescent-tagged, a Cn-targeting antibody is overlaid and an image is taken. Fluorescent spots indicate strong Cn binders. (f) Scatter plot of the sequence likelihood (normalized by length, higher is better) against fluorescence level (higher is better, see Methods for details of the data analysis).
In parallel, selected peptides were tested for Cn binding on a chip microarray (PEPperPRINT). 786 peptides were printed on the chip and were incubated with GST-tagged Cn overnight at 4°C. Following extensive washing, binding was detected by applying a fluorescently labeled (Alexa-Fluor 647) GST antibody. […] The experiment was repeated five times, and Z-normalized fluorescence levels were determined following post-processing of the raw data (Methods, S5A, S5B and S5C Fig).
The peptide array was prepared as a custom array pepper chip (PEPperPRINT). For binding detection, 1mg/ml GST-tagged Cn was incubated overnight on the microarray at 4°C. Following extensive washing, fluorescently labeled (Alexa-Fluor 647) GST-antibody. […] The experiment was repeated five times. Each scan was analyzed as follows: a grid was overlaid using the border HA markers to determine regions of interest (ROI) for each peptide (two ROIs per peptide) and the logarithm of the average fluorescence intensity was computed for each ROI. […] To remove spatial artifacts, a position-dependent baseline fluorescence was fitted using a second-order polynomial, and subtracted to the fluorescence. Fluorescence levels were next averaged over the two ROI for each peptide and Z-normalized. […] The Z-scores were averaged over the five repetitions to yield one fluorescence score per peptide.

[1] = GST-tagged Cn, max over the chip locations
[2] = GST-tagged Cn, mean over the chip locations
[3] = GST-tagged Cn, max over the spots named in Location on chip
[4] = GST-tagged Cn, mean over the spots named in Location on chip
[5] = max over the chip locations listed for the peptide (two spots)
[6] = mean over the chip locations listed for the peptide (two spots)
[7] = max over the spots listed under Location on chip
[8] = mean over the spots listed under Location on chip
[9] = GST-tagged Cn, max over the spots on the chip (two locations)
[10] = GST-tagged Cn, mean over the spots on the chip (two locations)
[11] = GST-tagged Cn, max over the chip spots listed under Location on chip
[12] = GST-tagged Cn, mean over the chip spots listed under Location on chip

Sequence: ESLWIPNATPTNFGVY [SeqRBM_4910]
Chip Fluorescence (max) [3]: 1.643
Chip Fluorescence (mean) [4]: 0.8461

Sequence: ESSTTPGVVVHICEDD [SeqRBM_7485]
Chip Fluorescence (max) [5]: 8.839
Chip Fluorescence (mean) [6]: 1.544

Sequence: FAKHWPKLSDVSPVAH [SeqRBM_8299]
Chip Fluorescence (max) [1]: 0.2862
Chip Fluorescence (mean) [2]: -1.095

Sequence: FETSHPTVQLKIPQLR [SeqLCORL_Pteropus_alecto]
Chip Fluorescence (max) [7]: 2.606
Chip Fluorescence (mean) [8]: -0.1576

Sequence: FNSWRQVPLWSPEFHT [SeqRBM_9832]
Chip Fluorescence (max) [9]: 1.192
Chip Fluorescence (mean) [10]: 0.531

Sequence: FSFMCPDSNTNHDQVS [SeqRBM_6801]
Chip Fluorescence (max) [11]: 0.3774
Chip Fluorescence (mean) [12]: -0.7887

Sequence: FSGNQPAIVVHTCEDP [SeqRBM_2445]
Chip Fluorescence (max) [1]: 0.03592
Chip Fluorescence (mean) [2]: -0.8656

Sequence: FSNKASKARRMEPLSI [SeqRBM_824]
Chip Fluorescence (max) [9]: 1.106
Chip Fluorescence (mean) [10]: -0.01462

Sequence: GAPGTPSRWGTPLAPS [SeqRBM_851]
Chip Fluorescence (max) [3]: 1.622
Chip Fluorescence (mean) [4]: 0.7552

Sequence: GAPITPHKQGNEKAVS [SeqRBM_6919]
Chip Fluorescence (max) [11]: 0.7143
Chip Fluorescence (mean) [12]: -1.223

Sequence: GELAIKNMKPWDVGGY [SeqRBM_3830]
Chip Fluorescence (max) [7]: 3.053
Chip Fluorescence (mean) [8]: 1.402

Sequence: GGLRSDSVTMIDQGAY [SeqRBM_2699]
Chip Fluorescence (max) [7]: 2.739
Chip Fluorescence (mean) [8]: 1.043

Sequence: GGPGTPGRPGIHSAPS [SeqRBM_5424]
Chip Fluorescence (max) [3]: 1.6472
Chip Fluorescence (mean) [4]: -0.88

Sequence: GHSHNPSITITFAEAE [SeqRBM_9189]
Chip Fluorescence (max) [5]: 4.764
Chip Fluorescence (mean) [6]: 1.127

Sequence: GPPATPSIVVHPCCCD [SeqRBM_2098]
Chip Fluorescence (max) [9]: 1.034
Chip Fluorescence (mean) [10]: -0.005812

Sequence: GSDDCPNVIVHIPHED [SeqRBM_9050]
Chip Fluorescence (max) [5]: 5.16
Chip Fluorescence (mean) [6]: 0.1112

Sequence: GSETQPGIVVHVCEDD [SeqRBMlowT_1216]
Chip Fluorescence (max) [7]: 2.678
Chip Fluorescence (mean) [8]: 0.9155

Sequence: GSPPTPSRSGKPPKPL [SeqRBM_2495]
Chip Fluorescence (max) [7]: 3.396
Chip Fluorescence (mean) [8]: 0.6955

Sequence: GTDTTPSVVVHVCEDD [SeqRBMlowT_1211]
Chip Fluorescence (max) [11]: 0.8657
Chip Fluorescence (mean) [12]: -0.2753

Sequence: GTETTPSIVVHVCEDD [SeqRBMlowT_128]
Chip Fluorescence (max) [5]: 4.964
Chip Fluorescence (mean) [6]: 1.374

Sequence: GTETTPSVVVHVCEDD [SeqRBMlowT_112]
Chip Fluorescence (max) [5]: 4.01
Chip Fluorescence (mean) [6]: 1.52

Sequence: GTMSPPDISITPPYAP [SeqRBM_3223]
Chip Fluorescence (max) [1]: 0
Chip Fluorescence (mean) [2]: -0.3136

Sequence: GTSGGFPQTDRSHKKQ [SeqRBM_413]
Chip Fluorescence (max) [5]: 3.637
Chip Fluorescence (mean) [6]: -0.2581

Sequence: GVPETPSRPVDPTAPS [SeqRBM_5086]
Chip Fluorescence (max) [1]: -0.4316
Chip Fluorescence (mean) [2]: -1.3551

Sequence: GVQANPQFTIKAMMTN [SeqRBM_9281]
Chip Fluorescence (max) [1]: -0.1422
Chip Fluorescence (mean) [2]: -2.366

Sequence: HSKLIPKLSFQSPVHH [SeqRBMlowT_814]
Chip Fluorescence (max) [1]: -0.8035
Chip Fluorescence (mean) [2]: -1.44

Sequence: HSKLIPKLSIQSPVHH [SeqRBMlowT_822]
Chip Fluorescence (max) [1]: 0.1809
Chip Fluorescence (mean) [2]: -0.5839

Sequence: HSKSIPKISIQSPVHH [SeqRBMlowT_863]
Chip Fluorescence (max) [1]: -0.2725
Chip Fluorescence (mean) [2]: -0.8171

Sequence: HSKSSPKLSISSPVHH [SeqRBMlowT_1628]
Chip Fluorescence (max) [7]: 3.1562
Chip Fluorescence (mean) [8]: 1.038

Sequence: HVSSSPDIAITPTQHR [SeqRBMlowT_750]
Chip Fluorescence (max) [1]: 0.08257
Chip Fluorescence (mean) [2]: -1.44

Sequence: HVSSSPDIALTPEQHD [SeqRBM_7666]
Chip Fluorescence (max) [1]: 0.08725
Chip Fluorescence (mean) [2]: -0.9315

Sequence: HVSSSPDITITPTQHR [SeqRBMlowT_702]
Chip Fluorescence (max) [9]: 1.204
Chip Fluorescence (mean) [10]: 0.3347

Results, then the sequence that gave them:

Chip Fluorescence (max) [1]: -0.1304
Chip Fluorescence (mean) [2]: -0.5132
Sequence: ESFGNELIPFNASKSY [Seqshuffled_9947]

Chip Fluorescence (max) [5]: 3.699
Chip Fluorescence (mean) [6]: 0.5277
Sequence: FFHHGLSCCKARQAEY [Seqrandom_9955]

Chip Fluorescence (max) [5]: 5.256
Chip Fluorescence (mean) [6]: 1.49
Sequence: FHYEDLSWHFQLFEGE [Seqrandom_9976]

Chip Fluorescence (max) [5]: 4.229
Chip Fluorescence (mean) [6]: 0.4051
Sequence: FLGRGPQLEDFDPSRD [Seqshuffled_9338]

Chip Fluorescence (max) [3]: 1.524
Chip Fluorescence (mean) [4]: -0.1169
Sequence: FSMLIGMHEPHPNTTI [Seqrandom_9971]

Chip Fluorescence (max) [3]: 1.507
Chip Fluorescence (mean) [4]: 0.3571
Sequence: GASMCPAMSWQDCGQR [SeqSFB3_Iconisemion_striatum]

Chip Fluorescence (max) [5]: 7.244
Chip Fluorescence (mean) [6]: 0.4206
Sequence: GAWGLNKSGLFLINEV [Seqshuffled_9399]

Chip Fluorescence (max) [5]: 4.236
Chip Fluorescence (mean) [6]: -0.3717
Sequence: GDPITVTFSFKQQSIR [Seqshuffled_9986]

Chip Fluorescence (max) [3]: 1.494
Chip Fluorescence (mean) [4]: 0.7951
Sequence: GDYMQGTLQAETGEHD [Seqshuffled_9624]

Chip Fluorescence (max) [3]: 1.711
Chip Fluorescence (mean) [4]: 0.4381
Sequence: GGESQPGIVVHVCEED [SeqRBMlowT_2505]

Chip Fluorescence (max) [9]: 1.277
Chip Fluorescence (mean) [10]: -0.2851
Sequence: GGPGTPGRQGGHLAPS [SeqRBMlowT_9820]

Chip Fluorescence (max) [1]: 0.3619
Chip Fluorescence (mean) [2]: -1.021
Sequence: GGPGTPGRQGQHLAPS [SeqRBMlowT_7794]

Chip Fluorescence (max) [3]: 1.388
Chip Fluorescence (mean) [4]: -0.6767
Sequence: GGPGTPGRQGQPLAPS [SeqRBMlowT_7795]

Chip Fluorescence (max) [5]: 21.0979
Chip Fluorescence (mean) [6]: 2.702
Sequence: GGPGTPTRQGQHLAPG [SeqRBMlowT_9846]

Chip Fluorescence (max) [5]: 4.384
Chip Fluorescence (mean) [6]: 0.9288
Sequence: GGPGTPTRQGQPLAPS [SeqRBMlowT_7789]

Chip Fluorescence (max) [9]: 1.002
Chip Fluorescence (mean) [10]: 0.1299
Sequence: GLCDSSKVNLVDAGPV [Seqshuffled_9731]

Chip Fluorescence (max) [11]: 0.9025
Chip Fluorescence (mean) [12]: -0.2688
Sequence: GLLNVYKKTRITYDNL [Seqrandom_1974]

Chip Fluorescence (max) [5]: 6.762
Chip Fluorescence (mean) [6]: 1.072
Sequence: GPQDIPEVVVSPPEDD [SeqSLC4A7_Austrofundulus_limnaeus]

Chip Fluorescence (max) [1]: 0.04391
Chip Fluorescence (mean) [2]: -1.286
Sequence: GQSISRNIRPNTFSPL [Seqshuffled_9432]

Chip Fluorescence (max) [7]: 2.642
Chip Fluorescence (mean) [8]: 1.025
Sequence: GSMLVPAINIDYAPTN [SeqRBMlowT_5048]

Chip Fluorescence (max) [9]: 1.178
Chip Fluorescence (mean) [10]: 0.2864
Sequence: GSSSSPPVDLKIPQVR [SeqRBMlowT_8820]

Chip Fluorescence (max) [11]: 0.4586
Chip Fluorescence (mean) [12]: 0.04317
Sequence: GTESTPSVVVHVCDSD [SeqRCN1_Desmodus_rotundus]

Chip Fluorescence (max) [5]: 3.823
Chip Fluorescence (mean) [6]: 1.0203
Sequence: GTESTPSVVVHVCESE [SeqRCN1_Pongo_abelii]

Chip Fluorescence (max) [5]: 3.464
Chip Fluorescence (mean) [6]: 0.964
Sequence: GTLYDNVLGIESFSLS [SeqRBMlowT_4817]

Chip Fluorescence (max) [9]: 1.31
Chip Fluorescence (mean) [10]: -0.01046
Sequence: GVHSCPALSVDRPQNQ [Seqshuffled_9565]

Chip Fluorescence (max) [7]: 3.174
Chip Fluorescence (mean) [8]: 2.023
Sequence: GYDIDPAISFDSDLML [Seqshuffled_9502]

Chip Fluorescence (max) [1]: -0.228
Chip Fluorescence (mean) [2]: -0.7974
Sequence: HISSSPDITATPTQHR [SeqRIPOR2_Calypte_anna]

Chip Fluorescence (max) [3]: 1.7974
Chip Fluorescence (mean) [4]: -0.2423
Sequence: HSKFIPKLSIQSPVLH [SeqRBMlowT_6746]

Chip Fluorescence (max) [9]: 1.29
Chip Fluorescence (mean) [10]: -0.2065
Sequence: HSKFIPKLSLQSPVHH [SeqRBMlowT_1695]

Chip Fluorescence (max) [11]: 0.5936
Chip Fluorescence (mean) [12]: -1.087
Sequence: HSKLIPKLSISSPVHH [SeqRBMlowT_1731]

Chip Fluorescence (max) [3]: 1.671
Chip Fluorescence (mean) [4]: -0.5381
Sequence: HSKLIPKLSVQSPVHH [SeqRBMlowT_1714]

Chip Fluorescence (max) [1]: 0.1516
Chip Fluorescence (mean) [2]: -0.9286
Sequence: HSKLIPKVSIQSPVHH [SeqRBMlowT_2323]

Chip Fluorescence (max) [1]: 0.06895
Chip Fluorescence (mean) [2]: -0.7142
Sequence: HSKSIPKFSFQSPVHH [SeqRBMlowT_1680]

Chip Fluorescence (max) [3]: 1.612
Chip Fluorescence (mean) [4]: 0.1762
Sequence: HVEDTTEFALQRPSND [Seqshuffled_9422]
